According to PMC10415136, “Reverse transcriptases prime DNA synthesis” (Nucleic Acids Research, 2023):

What was measured:
LlLtrA RT domain = target: T1, LlLtrA RT domain (Lactococcus cremoris, UniProt P0A3U0); assay: gel-based primase assay; format: biochemical; conditions: RNA template (oMZ27), gamma-phosphate FAM-labelled GTP, Mn2+
T1 construct: gene ltrA; RT domain aa 1-472, endonuclease domain removed; recombinant from E. coli; catalytic D308, D309
T1 sequence (P0A3U0 1-472): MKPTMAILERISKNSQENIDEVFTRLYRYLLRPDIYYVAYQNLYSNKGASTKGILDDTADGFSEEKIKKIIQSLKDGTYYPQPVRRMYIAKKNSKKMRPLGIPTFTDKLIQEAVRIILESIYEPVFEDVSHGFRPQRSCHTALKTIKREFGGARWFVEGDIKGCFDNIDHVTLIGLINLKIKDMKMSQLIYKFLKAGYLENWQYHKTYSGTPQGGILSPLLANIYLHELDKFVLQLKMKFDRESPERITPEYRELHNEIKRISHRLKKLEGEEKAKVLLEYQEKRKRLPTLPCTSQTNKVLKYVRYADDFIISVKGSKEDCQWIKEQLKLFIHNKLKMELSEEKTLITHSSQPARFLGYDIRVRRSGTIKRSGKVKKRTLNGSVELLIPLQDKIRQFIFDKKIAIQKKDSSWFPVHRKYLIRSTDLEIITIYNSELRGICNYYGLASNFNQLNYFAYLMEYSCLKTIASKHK

ScTy3 RT = target: T2, ScTy3 RT (Saccharomyces cerevisiae, UniProt Q99315); assay: gel-based primase assay; format: biochemical; conditions: DNA or RNA template, gamma-phosphate FAM-labelled GTP, Mn2+
T2 construct: gene TY3B-G; RT domain aa 1-339 of the mature RT from Ty3 Gag-Pol polyprotein, C-terminal MBP fusion; recombinant from E. coli
T2 sequence (Q99315 536-874): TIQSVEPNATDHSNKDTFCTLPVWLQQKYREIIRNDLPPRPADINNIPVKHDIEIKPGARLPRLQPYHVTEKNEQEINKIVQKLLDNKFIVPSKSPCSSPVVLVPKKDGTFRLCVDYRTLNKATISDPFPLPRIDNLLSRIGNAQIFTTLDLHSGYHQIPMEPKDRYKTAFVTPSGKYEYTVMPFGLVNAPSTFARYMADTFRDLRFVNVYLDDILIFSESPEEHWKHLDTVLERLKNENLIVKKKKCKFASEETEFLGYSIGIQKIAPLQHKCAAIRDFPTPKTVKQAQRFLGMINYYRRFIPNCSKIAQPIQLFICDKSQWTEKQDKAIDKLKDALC

gel-based primase assay (LlLtrA RT domain): LlLtrA RT is an RNA-dependent primase
Structure (SMILES): Nc1nc2c(ncn2[C@H]2C[C@H](O)[C@@H](COP(=O)(O)OP(=O)(O)OP(=O)(O)O)O2)c(=O)[nH]1 [dGTP]
gel-based primase assay (ScTy3 RT): ScTy3 RT is efficient DNA and RNA-dependent primase
